For this assay, the system named is HEK293 cells. The assay can be described thus: MTT cytotoxicity assay in HEK293 cells. In kind it is cell-based. The following applies: Homo sapiens, 48 h of treatment, non-cancer. As to the method: Dr. Dr. med. Sonja Loges (University Medical Center Hamburg-Eppendorf, Hamburg, Germany). Cells were cultured according to the manufacturers’ instructions and were recently authenticated by a commercial service (Multiplexion, Heidelberg, Germany). Culture conditions are described in the Supplementary Information.
MTT (3-(4,5-dimethylthiazol-2-yl)-2,5-diphenyltetrazolium bromide) cytotoxicity assay was used for the evaluation of cytotoxicity of the compounds or their combinations. Experiments were performed as previously described. In brief, 6000 cells/well were seeded in 96-well plate, incubated overnight, and treated with the drugs in 100 µL/well of 10% FBS/RPMI media containing 2 g/L of D-(+)-glucose for 48 h, unless otherwise stated. For 2 h treatment the cells were treated with the drugs for 2 h in the culture media, then the media was exchanged to fresh drug-free media (100 µL/well) containing MTT reagent and the further steps were performed as previously described.
(In general: Tetrazolium assays rely on reduction of a dye to a coloured formazan, in cell work by metabolically active cells.)

SMILES strings stand for the structures.

For orientation: IC50 means the concentration at which inhibition is half-maximal. As for `CC1(C)OC2OC(C(O)COC3=CC(=O)c4cccc(O)c4C3=O)C(O)C2O1` (stereo not shown) [Compound 11], the IC50 is 4.46 µM.

The values above are taken from article PMC6896172, “Successful Targeting of the Warburg Effect in Prostate Cancer by Glucose-Conjugated 1,4-Naphthoquinones” (Cancers, 2019).
